According to patent US8853222B2, “Treatment of herpes virus related diseases” (priority 2008, dated 2014):
“Also recorded” adds a separate entry of the source. Like-named read-outs stand apart in the source and are kept apart here.

Assays:
[1] = oral, maximum dose of 800 mg 5 times per day, most patients; cited from earlier work
[2] = cited from earlier work
[3] = Aseptic meningio-encephalitis subject treated with much higher doses; assay type: in vivo, human; settings: much higher doses than '114
Text: While the treatment of autoimmune disease using high levels of the anti-herpetic drugs taught in patent '114 provided noticeable improvements in a patient, signs or symptoms lingered even with ongoing treatment. Knowing the warning of the anti-herpetic drug labels that were on the market against using higher doses, increasing the dose even further was definitely contraindicated. However, the inventor was confronted with a problem of a subject presenting with extremely painful migraine type headache, which was diagnosed to be aseptic (not bacterial) meningio-encephalitis. […] The inventor also discovered that by using the much higher doses of famciclovir than previously taught in '114, the need to titrate a subject to tolerance of the drug could be avoided, that is the higher doses were effective at ameliorating the signs or symptoms of the disease without the accompanying pain of starting at a low dose and increasing it to a therapeutically effective level, as experienced with the doses of '114. While not wishing to be bound by a particular theory, it is thought that by regularly administering the higher levels the drug, a subject avoids a fluctuating blood level that can add to the irritation of already irritated nerves by major influxes of drug at a high level after having been at a lower level in the subject. […]

[4] = cited from earlier work; remark: listed apart in the source
HSV-II = experiment: Suppression of vesicle formation, prodrome and viral shedding in person with ongoing HSV-II infection; assay type: in vivo, human
Text: The inventor in this application is aware of the prior art teaching of U.S. Pat. No. 5,559,114 (“'114”) and International Application No. PCT/US95/16207 (“16207”) that describe the treatment of certain autoimmune diseases using higher than FDA-approved amounts of certain 2-amino purine derivatives. According to the teachings of the '114 patent and the 16207 application, one compound useful was acyclovir (or its precursor valacyclovir) at a level of 20 to 50 g per day for a 100 kg subject (or 5-10 g of valacyclovir). Another compound was famciclovir (the precursor of penciclovir) at about 4-10 g per day for a 100 kg subject ([…]). In following the treatment regime so taught for a subject having HSV-II infection and with the drug used to suppress autoimmune disease signs or symptoms, the inventor of the present invention observed that although the signs or symptoms of the subject's autoimmune disease improved, the subject continued to experience discomfort even if the high dose regimen of famciclovir described in the '114 patent was followed for a number of years. In addition, the subject continued to have prodrome episodes, vesicle outbreaks, and viral shedding. The prodrome is the sensation of tingling, pain or both in an area where the herpetic vesicles will appear within 24 to 48 hours. This is a very reliable signal that vesicles will appear on schedule. Vesicles are blisters or ulcers that appear on the skin or various mucous membranes as a result of the virus's replication process destroying cells that it has invaded. Viral shedding means that the virus is active on the skin, even though there is no prodrome or vesicle formation, and can be transmitted to another subject through skin contact, kissing, sexual intercourse, or oral sex.
This inventor interprets this to mean that viral shedding has been reduced dramatically, at least 90%. It is probably that viral shedding has been stopped completely. […]

[5] = Renal function by creatinine clearance in one patient; assay type: in vivo, human; settings: from ~29 mL/min before
Text: This treatment is useful, not only in stopping the progression of the diseases, but in returning more of organ function previously lost. Text books claim that organ function lost to these diseases can never be recovered, but this treatment has succeeded in recovering nearly all lost organ function. One of the diseases for which a large return of function appears achievable is progressive loss of renal function by unknown cause, but suspected to be autoimmune disease related. A clinical laboratory measure of kidney function is creatinine clearance. Creatinine is the metabolic product formed from creatine when food is converted to energy. Creatinine is produced at a steady state and is affected very little by diet or normal physical activities. When a subject's kidneys are damaged and/or cannot function normally, the amount of creatinine excreted in the subject's urine decreases while its level in the blood increases. Thus, the blood level of creatinine indicates how well the kidneys are working A higher than normal blood level of creatinine usually means the kidneys are not functioning properly. […] As the measured kidney function improves a parallel process occurs in other affected tissues or organs, with a diminution of the visible inflammation, swelling, pain, grinding and clicks in the afflicted articular joints. […]

Nc1nc2c(ncn2COCCO)c(=O)[nH]1 [acyclovir, 2-amino-1,9-dihydro-9-[(2-hydroxyethoxy)methyl]-6H-purin-6-one]
blood level [1]: about 1.61 μg/mL
effect on pain, muscle spasms, joint tenderness and butterfly rash ([2]; lupus patient, between 40 and 50 g per day): controlled pain, muscle spasms, joint tenderness and the butterfly rash

CC(=O)OCC(CCn1cnc2cnc(N)nc21)COC(C)=O [famciclovir, 2-[2-(2-amino-9H-purin-9-yl)ethyl]-1,3-propanediol diacetate]
signs or symptoms of the encephalitis [3]: alleviated
oral bioavailability ([4]; in vivo, po): 77±8%
effect on pain, muscle spasms, joint tenderness and butterfly rash ([2]; 10-12 g per day): same effect
viral shedding reduced (HSV-II; 300 mg/kg/day, inventor's interpretation from suppressed sensations): at least 90%
prodrome and vesicle outbreak (HSV-II; 10-12 g per day ('114 dose level)): continued to experience prodrome and vesicle outbreak
vesicle formation (HSV-II; ongoing dosage of 300 mg/kg/day, 300 mg/kg/day): no new vesicles form; also recorded: total suppression
creatinine clearance ([5]; doses of '114, same patient): ~89 mL/min
creatinine clearance ([5]; very high doses, one patient): more than 140 mL/min

CC(C)[C@H](N)C(=O)OCCOCn1cnc2c(=O)[nH]c(N)nc21 [valacyclovir, L-valine, 2-[(2-amino-1,6-dihydro-6-oxo-9H-purin-9-yl)methoxy]ethyl ester]
oral bioavailability ([4]; oral): 55±9%
